# Test results from patent publication US10758534B2 (Vertex Pharmaceuticals Incorporated, priority 2014, dated 2020).
# Molecular target: T1, F508del (Homo sapiens, UniProt P13569, DEL508-508)
# T1 construct: expressed in transfected cells
# Experiment: Protocol 1: membrane potential optical assay (FLIPR III, voltage sensing dye), identification of potentiator compounds
# Type: cell-based
# Settings: Table 3, compounds of Table 1
# Method in brief: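 NIH 3T3 fibroblasts stably expressing F508del were cultured at 27° C for 24 hrs for temperature correction, then treated with compounds or DMSO and loaded with a voltage-sensing redistribution dye. Forskolin added with a Cl⁻ gradient activated the channel; membrane-potential fluorescence on FLIPR III reported increased gating.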
# T1 sequence (P13569 with tags, fused parts or gaps DEL508-508): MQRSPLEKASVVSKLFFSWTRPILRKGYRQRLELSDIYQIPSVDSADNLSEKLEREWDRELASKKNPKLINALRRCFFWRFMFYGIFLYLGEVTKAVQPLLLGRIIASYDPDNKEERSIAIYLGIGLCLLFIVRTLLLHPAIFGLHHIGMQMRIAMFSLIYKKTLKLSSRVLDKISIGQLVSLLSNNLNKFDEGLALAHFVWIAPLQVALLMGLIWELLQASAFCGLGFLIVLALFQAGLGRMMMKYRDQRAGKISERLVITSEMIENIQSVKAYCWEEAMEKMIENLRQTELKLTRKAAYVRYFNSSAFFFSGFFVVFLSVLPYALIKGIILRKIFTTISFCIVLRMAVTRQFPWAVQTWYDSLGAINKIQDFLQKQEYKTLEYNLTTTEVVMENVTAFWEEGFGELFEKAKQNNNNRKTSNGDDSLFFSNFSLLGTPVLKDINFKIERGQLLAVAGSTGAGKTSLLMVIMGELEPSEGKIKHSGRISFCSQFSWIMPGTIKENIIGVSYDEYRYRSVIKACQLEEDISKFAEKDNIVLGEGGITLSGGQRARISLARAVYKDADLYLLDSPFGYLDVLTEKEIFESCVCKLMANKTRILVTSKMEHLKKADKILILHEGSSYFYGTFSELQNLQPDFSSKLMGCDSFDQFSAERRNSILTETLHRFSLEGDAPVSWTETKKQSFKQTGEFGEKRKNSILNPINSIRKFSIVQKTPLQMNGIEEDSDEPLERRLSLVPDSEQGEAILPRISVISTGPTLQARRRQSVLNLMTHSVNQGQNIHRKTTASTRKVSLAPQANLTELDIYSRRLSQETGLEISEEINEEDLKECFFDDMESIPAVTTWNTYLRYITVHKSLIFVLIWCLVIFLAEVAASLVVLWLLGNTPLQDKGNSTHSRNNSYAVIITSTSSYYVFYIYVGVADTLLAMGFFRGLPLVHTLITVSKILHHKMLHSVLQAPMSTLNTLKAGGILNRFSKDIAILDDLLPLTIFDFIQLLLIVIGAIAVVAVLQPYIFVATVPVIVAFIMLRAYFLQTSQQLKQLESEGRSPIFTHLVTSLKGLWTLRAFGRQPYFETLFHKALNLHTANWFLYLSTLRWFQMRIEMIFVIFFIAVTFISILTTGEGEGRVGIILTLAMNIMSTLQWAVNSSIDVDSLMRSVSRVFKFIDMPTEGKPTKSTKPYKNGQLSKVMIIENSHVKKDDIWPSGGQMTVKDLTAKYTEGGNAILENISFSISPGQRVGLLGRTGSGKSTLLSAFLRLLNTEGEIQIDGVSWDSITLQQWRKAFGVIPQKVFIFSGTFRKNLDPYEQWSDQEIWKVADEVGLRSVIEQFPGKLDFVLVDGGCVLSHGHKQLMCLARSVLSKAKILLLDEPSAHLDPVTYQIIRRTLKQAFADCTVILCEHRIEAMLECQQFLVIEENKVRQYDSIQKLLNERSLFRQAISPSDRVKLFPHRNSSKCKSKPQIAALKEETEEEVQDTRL
row,Compound,EC30
1,"CCOc1cccc2c1CN(Cc1ccc(C(C)C)cc1)C2(C)C(=O)NS(=O)(=O)c1cccc(F)n1 (stereo not drawn) [Compound 1655, 4-ethoxy-N-[(6-fluoro-2-pyridyl)sulfonyl]-2-[(4-isopropylphenyl)methyl]-1-methyl-isoindoline-1-carboxamide]",+++ (“+++” means <3 uM)
2,"CC(C)COc1cc(F)cc(-c2ccc(C(=O)NS(=O)(=O)c3cccc(N)n3)c(C3=CCC(C(F)(F)F)CC3)n2)c1 (stereo not drawn) [Compound 1667, N-[(6-amino-2-pyridyl)sulfonyl]-6-(3-fluoro-5-isobutoxy-phenyl)-2-[4-(trifluoromethyl)cyclohexen-1-yl]pyridine-3-carboxamide]",++ (“++” means between 3 uM and 10 uM)
3,"COc1ccc(-c2ccc(C(=O)NS(=O)(=O)c3cccc(N)n3)c(Oc3c(C)cc(C)cc3C)n2)cc1F [Compound 1140, N-[(6-amino-2-pyridyl)sulfonyl]-6-(3-fluoro-4-methoxy-phenyl)-2-(2,4,6-trimethylphenoxy)pyridine-3-carboxamide]",+++ (“+++” means <3 uM)
4,"CC(Cc1ccccc1)Oc1nc(C(C)(C)C)ccc1C(=O)NS(=O)(=O)c1cccc(N)n1 (stereo not drawn) [Compound 1314, N-[(6-amino-2-pyridyl)sulfonyl]-6-tert-butyl-2-(1-methyl-2-phenyl-ethoxy)pyridine-3-carboxamide]",+++ (“+++” means <3 uM)
5,"Cc1cc(OCC(C)C)cc(-c2ccc(C(=O)NS(=O)(=O)c3cccc(N)n3)c(N3C[C@@H](C)CC3(C)C)n2)c1 [Compound 1646, N-[(6-amino-2-pyridyl)sulfonyl]-6-(3-isobutoxy-5-methyl-phenyl)-2-[(4 S)-2,2,4-trimethylpyrrolidin-1-yl]pyridine-3-carboxamide]",+++ (“+++” means <3 uM)
6,"Cc1cc(C)c(Cn2nc(C(C)(C)C)cc2C(=O)NS(=O)(=O)c2ccccc2N)c(C)c1 [Compound 1167, N-(2-aminophenyl)sulfonyl-5-tert-butyl-2-[(2,4,6-trimethylphenyl)methyl]pyrazole-3-carboxamide]",+++ (“+++” means <3 uM)
7,"Cc1cc(C)c(CN2CCc3ccccc3CC2C(=O)NS(=O)(=O)c2ccccn2)c(C)c1 (stereo not drawn) [Compound 1093, N-(2-pyridylsulfonyl)-3-[(2,4,6-trimethylphenyl)methyl]-1,2,4,5-tetrahydro-3-benzazepine-4-carboxamide]",++ (“++” means between 3 uM and 10 uM)
8,"CC(C)Oc1ccc(-c2cnc(C(=O)NS(=O)(=O)c3cccc(N)n3)c(N3[C@H](C)CC[C@@H]3C)n2)cn1 [Compound 1651, N-[(6-amino-2-pyridyl)sulfonyl]-3-[(2S,5R)-2,5-dimethylpyrrolidin-1-yl]-5-(6-isopropoxy-3-pyridyl)pyrazine-2-carboxamide]",++ (“++” means between 3 uM and 10 uM)
9,"CCCOc1cccc(-c2ccc(C(=O)NS(=O)(=O)c3ccc[nH]c3=O)c(Oc3c(C)cc(C)cc3C)n2)c1 [Compound 1143, N-[(2-oxo-1H-pyridin-3-yl)sulfonyl]-6-(3-propoxyphenyl)-2-(2,4,6-trimethylphenoxy)pyridine-3-carboxamide]",++ (“++” means between 3 uM and 10 uM)
10,"CCOc1ccc(-c2ccc(C(=O)NS(=O)(=O)c3nccnc3N)c(-c3ccc(C)cc3)n2)cc1 [Compound 819, N-(3-aminopyrazin-2-yl)sulfonyl-6-(4-ethoxyphenyl)-2-(p-tolyl)pyridine-3-carboxamide]",+ (“+” means greater than 10 uM)

# Continued, values first:
row,EC30,Compound
1,+++ (“+++” means <3 uM),"C[C@@H]1CN(c2nc(-n3ccc(OCC(C)(C)C)n3)ccc2C(=O)NS(=O)(=O)c2cccc(N)n2)C(C)(C)C1 [Compound 1952, N-[(6-amino-2-pyridyl)sulfonyl]-6-[3-(2,2-dimethylpropoxy)pyrazol-1-yl]-2-[(4S)-2,2,4-trimethylpyrrolidin-1-yl]pyridine-3-carboxamide]"
2,+++ (“+++” means <3 uM),"CCC/C=C/c1cc(C(=O)NS(=O)(=O)c2cccc(N)n2)c(N2C[C@@H](C)CC2(C)C)nc1C(C)(C)C [Compound 1617, N-[(6-amino-2-pyridyl)sulfonyl]-6-tert-butyl-5-[(E)-pent-1-enyl]-2-[(4S)-2,2,4-trimethylpyrrolidin-1-yl]pyridine-3-carboxamide]"
3,+++ (“+++” means <3 uM),"Cc1cc2c(cc1-c1cnc(N3CC(C)CC3(C)C)c(C(=O)NS(=O)(=O)c3cccc(N)n3)c1)C(C)(C)CCC2(C)C (stereo not drawn) [Compound 1759, N-[(6-amino-2-pyridyl)sulfonyl]-5-(1,1,4,4,7-pentamethyltetralin-6-yl)-2-(2,2,4-trimethylpyrrolidin-1-yl)pyridine-3-carboxamide]"
4,+++ (“+++” means <3 uM),"C[C@@H]1CN(c2nc(-c3cccc(F)c3)ccc2C(=O)NS(=O)(=O)c2cccnc2N)C(C)(C)C1 [Compound 1873, N-[(2-amino-3-pyridyl)sulfonyl]-6-(3-fluorophenyl)-2-[(4S)-2,2,4-trimethylpyrrolidin-1-yl]pyridine-3-carboxamide]"
5,++ (“++” means between 3 uM and 10 uM),"C[C@@H]1CN(c2nc(-c3ccc(C(F)(F)F)cc3)ccc2C(=O)NS(=O)(=O)N2CC[C@H](N)C2)C(C)(C)C1 [Compound 1900, N-[(3S)-3-aminopyrrolidin-1-yl]sulfonyl-6-[4-(trifluoromethyl)phenyl]-2-[(4S)-2,2,4-trimethylpyrrolidin-1-yl]pyridine-3-carboxamide]"
6,+++ (“+++” means <3 uM),"COc1ccc(CN(C)c2cccc(S(=O)(=O)NC(=O)c3cccnc3N3CC(C)CC3(C)C)n2)cc1 (stereo not drawn) [Compound 1717, N—[[6-[(4-methoxyphenyl)methyl-methyl-amino]-2-pyridyl]sulfonyl]-2-(2,2,4-trimethylpyrrolidin-1-yl)pyridine-3-carboxamide]"
7,++ (“++” means between 3 uM and 10 uM),"CC(C)Oc1ccc(-c2ccc(C(=O)NS(=O)(=O)c3ccc(O)c(N)n3)c(N3[C@H](C)CC[C@@H]3C)n2)cn1 [Compound 1375, N-[(6-amino-5-hydroxy-2-pyridyl)sulfonyl]-2-[(2S,5R)-2,5-dimethylpyrrolidin-1-yl]-6-(6-isopropoxy-3-pyridyl)pyridine-3-carboxamide]"
8,+++ (“+++” means <3 uM),"Cc1ccc(C)c(-c2ccc(C(=O)NS(=O)(=O)c3cccnc3N)c(N3C[C@@H](C)CC3(C)C)n2)c1 [Compound 1951, N-[(2-amino-3-pyridyl)sulfonyl]-6-(2,5-dimethylphenyl)-2-[(4S)-2,2,4-trimethylpyrrolidin-1-yl]pyridine-3-carboxamide]"
9,+++ (“+++” means <3 uM),"COc1ccccc1Nc1cccc(S(=O)(=O)NC(=O)c2cccnc2N2CC(C)CC2(C)C)n1 (stereo not drawn) [Compound 1959, N—[[6-(2-methoxyanilino)-2-pyridyl]sulfonyl]-2-(2,2,4-trimethylpyrrolidin-1-yl)pyridine-3-carboxamide]"
10,+++ (“+++” means <3 uM),"Cc1cc(OC(C)C)cc(-c2cnc(N3CC(C)CC3(C)C)c(C(=O)NS(=O)(=O)c3cccc(N)n3)c2)c1 (stereo not drawn) [Compound 1889, N-[(6-amino-2-pyridyl)sulfonyl]-5-(3-isopropoxy-5-methyl-phenyl)-2-(2,2,4-trimethylpyrrolidin-1-yl)pyridine-3-carboxamide]"
11,+++ (“+++” means <3 uM),"COc1cc(-c2ccc(C(=O)NS(=O)(=O)c3cccc(N)n3)c(Oc3c(C)cc(C)cc3C)n2)c(F)cn1 [Compound 1277, N-[(6-amino-2-pyridyl)sulfonyl]-6-(5-fluoro-2-methoxy-4-pyridyl)-2-(2,4,6-trimethylphenoxy)pyridine-3-carboxamide]"
